We go through 19 compounds from ChEMBL document CHEMBL1138215, “Aminodeoxychorismate synthase inhibitors from one-bead one-compound combinatorial libraries: "staged" inhibitor design” (J Med Chem, 2006).

The source made the active and inactive calls. The rule behind the calls is not given here.

One test has as its system 4-amino-4-deoxychorismate synthase ADCS/PabB (Escherichia coli). The experiment in a line: Inhibition of ADCS.
Consider `O=C(O)CCC1=CC(CCC(=O)O)CCC1=O` (centres undefined), for which the result was inactive.

The target of a further test is 4-amino-4-deoxychorismate synthase (Escherichia coli). The experiment in a line: Inhibition of ADCS.
Regarding `NC(=O)C1(NC(=O)[C@H](CCCCNC(=O)c2cccc(OCC(=O)O)c2)NC(=O)c2cc(O)cc(O)c2)CCCCC1`, the Ki (usually a dissociation constant, usually derived from enzyme kinetics or from competition with a known ligand) amounted to 1100 µM. `CC(C(=O)N[C@@H](CCCCNC(=O)c1cccc(OCC(=O)O)c1)C(=O)NCCc1cccc2c1oc1c(CCC(N)=O)cccc12)c1ccc([N+](=O)[O-])cc1` (some centres undefined) displayed an inhibition constant Ki of 360 µM. With `NC(=O)C1(NC(=O)[C@H](CCCCNC(=O)c2cccc(OCC(=O)O)c2)NC(=O)c2ccc(Oc3ccccc3)cc2)CCS(=O)(=O)CC1`, the inhibition constant (Ki) was 710 µM. The same measure, in the same setting: the value for `Cc1ccc(C(=O)N[C@@H](CCCCNC(=O)c2cccc(OCC(=O)O)c2)C(=O)NCC(C(N)=O)C2CCCCC2)c([N+](=O)[O-])c1O` (some centres undefined) was 1700 µM. The compound `COc1cccc(OC)c1C(=O)N[C@@H](CCCCNC(=O)c1cccc(OCC(=O)O)c1)C(=O)N[C@@H](Cc1ccc([N+](=O)[O-])c(O)c1)C(N)=O` yielded a Ki of 720 µM.

In the case of `NC(=O)C1(NC(=O)[C@H](CCCCNC(=O)c2cccc(OCC(=O)O)c2)NC(=O)c2ncccc2C(=O)c2ccccc2)CCCCC1`, the inhibition constant (Ki) is 3900 µM. In the case of `Cc1ccc(C(=O)N[C@@H](CCCCNC(=O)c2cccc(OCC(=O)O)c2)C(=O)N[C@@H](Cc2cccc(Cl)c2)C(N)=O)c([N+](=O)[O-])c1O`, the inhibitory constant (Ki) is 770 µM. In the case of `Cc1ccc(C(=O)N[C@@H](CCCCNC(=O)c2cccc(OCC(=O)O)c2)C(=O)N[C@@H](Cc2cccc(Cl)c2)C(=O)NCCOCCOCCNC(=O)CCC(=O)N2CCN(CC(N)=O)CC2)c([N+](=O)[O-])c1O`, the Ki stood at 1500 µM. As to `CC(C(=O)N[C@@H](CCCCNC(=O)c1cccc(OCC(=O)O)c1)C(=O)NCCc1cccc2c1oc1c(CCC(=O)NCCOCCOCCNC(=O)CCC(=O)N3CCN(CC(N)=O)CC3)cccc12)c1ccc([N+](=O)[O-])cc1` (some centres undefined), the Ki was determined as 1400 µM. `CC(=O)N[C@@H](CCCCNCc1cccc(OCC(=O)O)c1)C(N)=O`: the affinity corresponds to a Ki of 38000 µM.

Compound `O=C(O)CNc1cc(C(=O)O)ccc1F` returned a Ki of 3000 µM.

`NC(=O)c1cccc(OCC(=O)O)c1` registered an inhibition constant (Ki) of 32000 µM. In turn, `CC(=O)N[C@@H](CCCCNC(=O)c1cccc(OCC(=O)O)c1)C(N)=O` showed an inhibitory constant (Ki) of 31000 µM.

With `O=C(O)COc1cccc(C(=O)O)c1`, the inhibition constant (Ki) was determined as 37000 µM. `O=C(O)COc1ccc(C(=O)O)cc1` registered an inhibitory constant (Ki) of 100000 µM.

Regarding `O=C(O)c1ccc(=O)oc1`, the inhibitory constant (Ki) stood at 2000 µM. Regarding `Cc1ccc(C(=O)N[C@@H](CCCCNC(=O)c2cccc(OCC(=O)O)c2)C(=O)N[C@@H](Cc2ccc(C#N)cc2)C(N)=O)c([N+](=O)[O-])c1O`, the affinity corresponds to a Ki of 540 µM. Turning to `O=C(O)CCNc1ccc(C(=O)O)cc1`, the inhibition constant Ki came to 13000 µM.
